# According to ChEMBL document CHEMBL5104182, “Design and Synthesis of a 2-Amino-pyridine Derivative as a Potent CDK8 Inhibitor for Anti-colorectal Cancer Therapy” (J Med Chem, 2022):
# The source made the active and inactive calls. The rule behind the calls is not given here.
# What was measured:
# [1] = Toxicity in ICR mouse assessed as heart damage at 1000 mg/kg, using gastric tube by H&E staining assay; type: organism-based; conditions: in vivo, po, route ig
# HCT-116 [2] = assay: Decrease in Dvl2 expression in human HCT-116 cells at 1 to 4 uM incubated for 12 hrs by western blotting analysis; type: functional, cell-based; conditions: dose 1-4 µM
# HCT-116 [3] = assay: Decrease in LRP6 expression in human HCT-116 cells at 1 to 4 uM incubated for 12 hrs by western blotting analysis; type: functional, cell-based; conditions: dose 1-4 µM
# [4] = Toxicity in Balb/c mouse assessed as MPO level in serum at 1000 mg/kg, using gastric tube; type: organism-based; conditions: in vivo, po, route ig
# HCT-116 [5] = assay: Decrease in beta-catenin/TCF/Lef combination expression in human HCT-116 cells at 1 to 4 uM incubated for 24 hrs by western blotting analysis; type: functional, cell-based; conditions: dose 1-4 µM
# [6] = Tmax in Sprague-Dawley rat at 10 mg/kg, po upto 24 hrs by HPLC analysis; type: ADME, organism-based; conditions: in vivo
# [7] = Cmax in Sprague-Dawley rat at 10 mg/kg, po upto 24 hrs by HPLC analysis; type: ADME, organism-based; set-up: time < 24 hrs, dose 10 mg/kg, route po; conditions: in vivo
# Homo sapiens = organism: Homo sapiens; assay: Selectivity ratio of IC50 for human CDK7 to IC50 for human CDK8
# [8] = Toxicity in ICR mouse assessed as abnormal behavior at 1000 mg/kg, using gastric tube; type: organism-based; conditions: in vivo, po, route ig
# [9] = Oral bioavailability in Sprague-Dawley rat at 10 mg/kg upto 24 hrs by HPLC analysis; type: ADME, organism-based; conditions: in vivo
# HCT-116 [10] = assay: Antiproliferative activity against sorafenib-resistant human HCT-116 cells assessed as cell viability incubated for 48 hrs by MTT assay; type: functional
# [11] = MRT in Sprague-Dawley rat at 2 mg/kg, iv upto 24 hrs by HPLC analysis; type: ADME, organism-based; conditions: in vivo
# [12] = molecular target: Cyclin-dependent kinase 8 (Homo sapiens, UniProt P49336); assay: Inhibition of CDK8 (unknown origin) assessed as inhibition rate
# Cyclin-dependent kinase 8, sequence (P49336 whole entry): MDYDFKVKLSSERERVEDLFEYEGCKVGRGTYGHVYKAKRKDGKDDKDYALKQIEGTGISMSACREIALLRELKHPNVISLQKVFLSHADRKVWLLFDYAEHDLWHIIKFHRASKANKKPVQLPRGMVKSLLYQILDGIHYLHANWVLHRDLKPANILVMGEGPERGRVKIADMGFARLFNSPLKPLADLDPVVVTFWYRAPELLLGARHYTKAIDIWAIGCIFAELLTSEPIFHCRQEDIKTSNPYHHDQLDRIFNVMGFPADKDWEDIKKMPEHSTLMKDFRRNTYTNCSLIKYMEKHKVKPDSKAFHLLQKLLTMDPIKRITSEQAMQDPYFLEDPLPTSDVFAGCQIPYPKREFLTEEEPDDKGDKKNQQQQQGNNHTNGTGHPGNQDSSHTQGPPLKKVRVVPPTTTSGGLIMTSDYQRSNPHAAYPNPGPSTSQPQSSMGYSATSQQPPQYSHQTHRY
# HCT-116 [13] = assay: Decrease in C-Myc expression in human HCT-116 cells at 1 to 4 uM incubated for 48 hrs by western blotting analysis; type: functional, cell-based; conditions: dose 1-4 µM
# HCT-116 [14] = assay: Induction of cell cycle arrest in human HCT-116 cells assessed as decrease in p-Rb S780 level incubated for 24 hrs by Western blot analysis; type: functional, cell-based
compound,measurement,setting,value
Nc1ccc(Oc2ccc(NC(=O)Nc3cccc(C(F)(F)F)c3)cc2)cn1,Activity,[1],Non-Toxic
same,Activity,HCT-116 [2],Active
same,Activity,HCT-116 [3],Active
same,Activity,[4],Non-Toxic
same,Activity,HCT-116 [5],Active
same,Tmax,[6],48 min
same,Cmax,[7],453 ng/mL
same,Ratio IC50,Homo sapiens,2
same,Activity,[8],Non-Toxic
same,bioavailability,[9],31.7%
same,GI50,HCT-116 [10],17.5 µM
same,MRT,[11],54 min
same,IC50,[12],0.0465 µM
same,Activity,HCT-116 [13],Active
same,Activity,HCT-116 [14],Active
